In general, T/C refers to the result in the treated group divided by that in the control group, in per cent.

Four molecules from ChEMBL document CHEMBL3243956, “Plant antitumor agents. 17. Structural requirements for antineoplastic activity in quassinoids” (1978) can be followed below.

Holding throughout (type): functional
Assay [1] has as its system P388. Kind of assay: Antileukemic activity against mouse P388 cells allografted in mouse assessed as increase in host survival at 4 mg/kg relative to control.
Assay [2] has as its system P388. Kind of assay: Antileukemic activity against mouse P388 cells allografted in mouse assessed as increase in host survival at 0.5 mg/kg relative to control.
For assay [3], the system named is P388. In words: Antileukemic activity against mouse P388 cells allografted in mouse assessed as increase in host survival at 1 mg/kg relative to control.
Assay [4] concerns P388. Kind of assay: Antileukemic activity against mouse P388 cells allografted in mouse assessed as increase in host survival at 2 mg/kg relative to control.
Assay [5] concerns P388. Kind of assay: Antileukemic activity against mouse P388 cells allografted in mouse assessed as increase in host survival at 8 mg/kg relative to control.
Assay [6] has as its system P388. Kind of assay: Antileukemic activity against mouse P388 cells allografted in mouse assessed as increase in host survival at 10 mg/kg relative to control.
Assay [7] relates to P388. In words: Antileukemic activity against mouse P388 cells allografted in mouse assessed as increase in host survival at 2.5 mg/kg relative to control.
Assay [8] concerns P388. Kind of assay: Antileukemic activity against mouse P388 cells allografted in mouse assessed as increase in host survival at 5 mg/kg relative to control.
Assay [9] has as its system P388. Kind of assay: Antileukemic activity against mouse P388 cells allografted in mouse assessed as increase in host survival at 1.25 mg/kg relative to control.
In assay [10] the test system is P388. Kind of assay: Antileukemic activity against mouse P388 cells allografted in mouse assessed as increase in host survival at 0.25 mg/kg relative to control.

Consider `CC(=O)O[C@@H]1C(=O)C=C(C)[C@@H]2[C@@H](OC(=O)C=C(C)C)[C@H]3OC(=O)C[C@H]4[C@@H](C)[C@@H](O)[C@]5(O)OC[C@]34[C@H]5[C@@]12C`, for which the T/C in the assay with P388 [1] was determined as 142%; in the assay on P388 [2], 118%; in the assay with P388 [3], 121%; with P388 [4] it was 132%; in the assay on P388 [5] it was 142%.

As to `CC(=O)OC[C@]12[C@@H]3OC(=O)C[C@H]1[C@@H](C)[C@@H](OC(C)=O)C(=O)[C@@H]2[C@@]1(C)[C@H](OC(C)=O)C(=O)C=C(C)[C@@H]1[C@H]3OC(=O)C=C(C)C`, the T/C was found to be 101% in the assay with P388 [1]; 100% in the assay with P388 [2]; 97% in the assay with P388 [3]; 102% in the assay on P388 [4]; 102% with P388 [5].

`CC(=O)O[C@@H]1[C@H](C)[C@@H]2CC(=O)O[C@@H]3[C@H](OC(=O)C=C(C)C)[C@H]4C(C)=CC(=O)[C@@H](OC(C)=O)[C@]4(C)[C@H]4[C@@]1(O)OC[C@@]342`: the T/C in the assay with P388 [6] came out at 107%; in the assay on P388 [7] it was 107%; in the assay on P388 [8], 107%; in the assay with P388 [9], 104%.

For the molecule `CC(C)=CC(=O)O[C@@H]1[C@H]2C(C)=CC(=O)[C@H](O)[C@]2(C)[C@H]2[C@]3(O)OC[C@@]24[C@@H]1OC(=O)C[C@H]4[C@@H](C)[C@H]3O`, the T/C is given as 145% in the assay on P388 [10], 161% with P388 [2], 198% in the assay on P388 [3] and 191% in the assay on P388 [4].
